In assay [1] the target is T1, S. pneumoniae neuraminidase (NanA) (Streptococcus pneumoniae, UniProt P62575).
T1 construct: residues 116-1035 of S. pneumoniae D39 sialidase A precursor (NanA); made in house; host or cells: E. coli BL21(DE3), pET28a
The assay is described as follows: Neuraminidase assay with fluorogenic substrate MNN, NanA. Type of assay: biochemical. Here is the method:
(§1) Neuraminidase assay. Neuraminidase activity of NanA was detected using the fluorogenic substrate 2′-(4-methylumbelliferyl)-α-D-N-acetylneuraminic acid (MNN, Sigma). Reactions contained 1.5 mM MNN, 1 nM of NanA in 2.5 mM sodium phosphate buffer (pH 5). Reactions were allowed to incubate for 2 h at 37° C. before fluorescence intensity was measured at excitation and emission wavelengths of 360 nm and 465 nm in a Tecan microplate reader (Männedorf, Switzerland). NanPs was assayed as above with 1 mM of enzyme in 7.5 mM sodium chloride and 4 mM calcium chloride. Compounds were screened at a concentration of 100 μM before dose-dependence was established. Compounds were obtained from a variety of sources (Otava, Kyiv, Ukraine; Interbioscreen, Moscow, Russia; Chembridge San Diego, USA; Maybridge, Cornwell, UK; Sigma, St Louis, USA; Princeton, Princeton, USA; Lifechem, Burlington, Canada; Enamine, Kiev, Ukraine). Neuraminidase assays with oseltamivir were performed using the hydrolyzed version of the compound. Divalent cations were supplied in the form of calcium, magnesium, ferric and copper chloride. All neuraminidase assays were performed at least in triplicate.
as §1, with “assay. NanA was purified as previously described (B19).” for “assay.”, “Switzerland).” for “Switzerland). NanPs was assayed as above with 1 mM of enzyme in 7.5 mM sodium chloride and 4 mM calcium chloride. Compounds were screened at a concentration of 100 μM before dose-dependence was established.”, “Kiev,” for “Kyiv,”, “compound. Briefly, a mixture of oseltamivir (300 mg) in methanol (10 ml) was added to 5N NaOH (3 ml). The mixture was stirred overnight and evaporated under reduced pressure. The residue was dissolved in 10 ml H2O and the washed with 5 ml of ethyl acetate. The aqueous solution was acidified with 5N HCl to pH=2-3. Evaporation of water under reduced pressure gave the hydrolyzed product. […]” for “compound.”

For assay [2], the system named is S. pneumoniae wild-type D39 biofilm. The assay is described as follows: Biofilm formation after epithelial cell interaction (crystal violet microtitre assay). Format: cell-based, Streptococcus pneumoniae. Here is the method:
(§2) Biofilm assay. Bacterial strains were grown to mid-log phase before being diluted 1:100 in TS broth and catalase. 100 μl of diluted culture was added in triplicate to 96-well flat bottom tissue culture treated plates (Falcon) and left for 18-24 h at 37° C. with 5% CO2. Plates were read at 600 nm to determine levels of growth before being washed in water. Adherent biofilm-forming cells were then stained with 125 μL of 1% crystal violet for 15 min before two further washes in water and allowed to dry. Bound crystal violet was then suspended in 200 μL of ethanol, shaken for 15 min and read at 540 nm.
(§3) Biofilm formation after epithelial cell interaction. Bacterial strains were grown and inoculated onto 1HAEo^− cells as per adherence assay. After the initial PBS washes fresh MEM media was applied before a further 1 h incubation. This removal and addition of fresh media was repeated a further four times before detachment of adherent bacteria using TrypLE Express (Gibco). The detached bacteria were then diluted 1:100 in TS broth and catalase and assayed as per the biofilm assay. Samples were repeated four times, each time in sextuplicate using epithelial cells without bacteria as a negative control.
as §3, with “control. […] Fluorescence microscopy was performed using a Zeiss Observer Z1 inverted fluorescence microscope with ApoTome (Zeiss) for optical sectioning and AxioVision software (v 4.6.2.0, Zeiss). […]” for “control.”

In assay [3] the target is T2, P. aeruginosa neuraminidase (NanPs) (Pseudomonas aeruginosa, UniProt G3XCV3). The settings on record: read-out: concentration for 50% inhibition of the P. aeruginosa neuraminidase; from reference A37; cited from earlier work.
T2 sequence (G3XCV3 entry or part of it): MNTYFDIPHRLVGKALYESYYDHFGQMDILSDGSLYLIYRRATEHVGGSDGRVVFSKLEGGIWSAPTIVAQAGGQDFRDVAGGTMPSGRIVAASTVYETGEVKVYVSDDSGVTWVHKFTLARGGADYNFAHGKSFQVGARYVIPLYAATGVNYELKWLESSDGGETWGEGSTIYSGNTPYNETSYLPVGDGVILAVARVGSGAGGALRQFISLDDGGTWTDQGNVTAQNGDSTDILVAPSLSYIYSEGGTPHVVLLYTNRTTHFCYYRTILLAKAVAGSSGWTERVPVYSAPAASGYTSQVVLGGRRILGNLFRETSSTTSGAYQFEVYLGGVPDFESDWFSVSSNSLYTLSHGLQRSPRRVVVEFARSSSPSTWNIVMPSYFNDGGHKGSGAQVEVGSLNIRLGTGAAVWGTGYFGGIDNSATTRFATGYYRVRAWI
Assay [4] addresses T2, P. aeruginosa neuraminidase (NanPs). The experiment in a line: Neuraminidase assay with fluorogenic substrate MNN, NanPs. Format: biochemical. Here is the method:
as §1

Assay [5] has as its system S. pneumoniae planktonic cells. The experiment in a line: Growth of planktonic cells (600 nm reading in biofilm assay). Format: cell-based, Streptococcus pneumoniae. The protocol:
as §2
as §3, with “control. […] Fluorescence microscopy was performed using a Zeiss Observer Z1 inverted fluorescence microscope with ApoTome (Zeiss) for optical sectioning and AxioVision software (v 4.6.2.0, Zeiss). […]” for “control.”

Entries after “also recorded” stand apart in the source; their conditions may differ. Where two headings read alike, the source gives them in different places. Where only a bound is given, the exact number is not on record here.

T1 sequence (P62575 116-1035): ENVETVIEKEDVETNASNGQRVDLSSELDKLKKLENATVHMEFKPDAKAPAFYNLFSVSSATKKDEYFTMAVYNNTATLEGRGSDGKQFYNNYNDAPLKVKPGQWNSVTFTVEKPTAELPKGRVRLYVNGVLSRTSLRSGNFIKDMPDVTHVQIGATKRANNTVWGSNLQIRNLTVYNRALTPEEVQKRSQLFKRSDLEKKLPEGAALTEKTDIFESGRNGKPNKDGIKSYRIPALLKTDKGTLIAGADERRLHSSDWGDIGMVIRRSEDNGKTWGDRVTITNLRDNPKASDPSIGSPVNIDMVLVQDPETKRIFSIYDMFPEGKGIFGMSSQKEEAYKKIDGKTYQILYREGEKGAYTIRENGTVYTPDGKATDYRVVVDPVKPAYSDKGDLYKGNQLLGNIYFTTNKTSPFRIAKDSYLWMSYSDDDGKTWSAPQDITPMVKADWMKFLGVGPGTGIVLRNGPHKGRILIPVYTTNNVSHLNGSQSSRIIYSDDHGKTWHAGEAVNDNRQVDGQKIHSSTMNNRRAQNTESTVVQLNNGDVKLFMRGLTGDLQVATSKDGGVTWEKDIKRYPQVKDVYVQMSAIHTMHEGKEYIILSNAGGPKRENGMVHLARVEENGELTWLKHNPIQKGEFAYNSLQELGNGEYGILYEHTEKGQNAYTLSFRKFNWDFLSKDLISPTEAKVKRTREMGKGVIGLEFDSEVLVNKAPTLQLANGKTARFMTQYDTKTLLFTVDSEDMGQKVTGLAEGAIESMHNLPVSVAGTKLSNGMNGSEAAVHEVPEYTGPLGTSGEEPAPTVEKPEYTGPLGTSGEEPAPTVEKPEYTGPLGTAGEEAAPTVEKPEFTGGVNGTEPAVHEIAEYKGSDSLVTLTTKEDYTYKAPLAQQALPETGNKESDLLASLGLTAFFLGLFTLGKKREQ

For `CC(=O)N[C@H]1[C@H]([C@H](O)[C@H](O)CO)OC(O)(C(=O)O)C[C@@H]1O` (stereo partly drawn) [NANA, N-acetylneuraminic acid, reference compound], the IC50 in assay [1] was 600 µM; in assay [3], approximately 10000 µM. Besides, the “biofilm formation of the wild-type (D39) strain” value in assay [2] (0.2% w/v NANA) is “decreased biofilm formation; also recorded: reduced biofilm formation”.
For `[Ca]` [calcium], the “increase in NanA activity” value in assay [1] (1 mM calcium) was 70%.
Regarding `[Mg]` [magnesium], in assay [1] (presence of magnesium ions), the “increase in NanA activity” value worked out at 50%.
As for `CC(=O)N[C@H]1[C@H]([C@H](O)[C@H](O)CO)OC(C(=O)O)=C[C@@H]1O` [DANA, 2,3-dehydro-2-deoxy-N-acetylneuraminic acid], the IC50 in assay [3] is approximately 10000 µM.
Turning to `CCOC(=O)C1=C[C@@H](OC(CC)CC)[C@H](NC(C)=O)[C@@H](N)C1` [Oseltamivir, oseltamivir, reference compound], the IC50 is 2000 µM in assay [1] (IC50 against NanA, hydrolyzed version of oseltamivir) and approximately 600 µM in assay [4].
As to `CC(=O)N[C@@H]1[C@@H](O)C[C@](Oc2ccc3c(C)cc(=O)oc3c2)(C(=O)O)O[C@H]1C(O)[C@H](O)CO` (stereo partly drawn) [MNN, 2′-(4-methylumbelliferyl)-α-D-N-acetylneuraminic acid, reference compound], the Km in assay [1] was approximately 1400 µM.
`COc1ccc([C@H]2[C@H](C(=O)c3ccc(Cl)cc3)C(=O)C(=O)N2c2cccc(C(=O)O)c2)cc1` [XX1]: the “inhibition of NanA, times more effective than DANA” value in assay [1] (Example 1) is recorded as “greater than 20 times”; in assay [1] (Example 3) it was “greater than 7 times”. The results for the “inhibition of NanA, times more effective than NANA” value in assay [1] (Example 1) and in assay [1] (Example 3) were more than 80 times and more than 20 times, respectively. The “inhibition of NanA, times more effective than oseltamivir” value is more than 200 times in assay [1] (Example 1) and more than 70 times in assay [1] (Example 3). For the same compound, the IC50 was determined as 28 µM in assay [1] (IC50 against NanA, Example 3, dose response fitted with logarithmic-based trend line); 8.5 µM in assay [1] (IC50 for the S. pneumoniae neuraminidase, Example 1, dose response fitted with power-based trend line); 29 µM in assay [4]. In addition, in assay [2] (100 μM, inhibitor present during epithelial cell exposure and in microtitre trays), the biofilm formation entry was “significant reduction in biofilm formation”. The “levels of biofilm formation” value in assay [2] (400 μM, inhibitor present during epithelial cell exposure and in microtitre trays) was “comparative to the nanA strain”. The “growth of planktonic cells” value in assay [5] was “did not affect growth”.

As usually defined, the Km is the substrate concentration at which the rate is half of its maximum.

The values above are taken from patent US20110280813A1, “NEURAMINIDASE INHIBITORS AND USES THEREOF” (priority 2008, published 2011).
